Data set [1] can be described thus: Zinc-induced fluorescence response in cuvette (turn-on, quantum yield). To be noted: for zinc-induced fluorescence response (turn-on): excess ZnCl2. It counts as physicochemical. As to the method:
FIG. 2 depicts the normalized fluorescent spectra of DA-ZP1-TPP (also referred to as Ac2-ZP1-TPP) and ZP1-TPP in the absence (dashed line) and presence (solid line) of excess ZnCl2. Inset: The y-axis is magnified to aid in the visualization of the ˜7-fold “turn-on” of ZP1-TPP.
FIG. 20 depicts Zn(II)-dependent fluorescence signal enhancement of DA-ZP1-TPP. (a) Normalized fluorescence spectra of a 1 μM solution of DA-ZP1-TPP, in 50 mM PIPES buffer (pH 7) with 1 mM EDTA, 2 mM CaCl2, and 100 mM KCl, upon increasing concentrations of free zinc ions. (b) Zinc binding isotherm for the data in (a), normalized to the fluorescence signal under zinc saturating conditions (λex=495 nm).
Spectra were acquired in 50 mM PIPES (pH 7) with 100 mM KCl. For this titration, a single excitation wavelength of λex=485 nm was used.
The diacetylated version of ZP1-TPP, designated DA-ZP1-TPP, was readily prepared by reacting ZP1-TPP with acetic anhydride overnight at room temperature. Over the course of the reaction, the mixture turned from a dark, salmon-colored solution to a light, nearly colorless liquid, which was purified by HPLC. […] Addition of nanomolar concentrations of zinc ions results in a large increase in both the absorption λabs-Zn=510 nm) and fluorescence (λem-Zn=529 nm, FIG. 20a) spectral bands of DA-ZP1-TPP. These optical changes combine to yield a >140-fold increase in the fluorescence signal (ΦZn=0.75±0.03, FIG. 20). […] Whether the mode of zinc-mediated ester hydrolysis proceeds by internal or external hydroxide attack remains to be determined. […] Addition of a chelator (EDTA) attenuates the fluorescence signal ˜5-fold (Φ=0.15±0.02) in the cuvette (FIG. 22) with a concomitant redshift in the absorption spectrum (λabs=522 nm). Reversibility of the fluorescence signal is an important feature for zinc-responsive probes, because it allows confirmation that the observed increase in fluorescence signal is due to Zn(II) and not the result of an artifact. […]
Using DA-ZP1-A3 as a model system, we assessed its photophysical and zinc-binding properties (FIG. 26). […]

Data set [2] in a line: Octanol/aqueous buffer partition coefficient (modified shake-flask). The following applies: octanol/water, buffered at pH 7 with 10 mM Tris. It counts as physicochemical. An excerpt:
To understand better the limitations of TPP in directing fluorophores to mitochondria, we prepared two additional TPP-derivatives, one based on 6-carboxyfluorescein (FL-TPP) and one on coumarin 343 (C343-TPP). […] To test this hypothesis, we conducted live cell fluorescence imaging experiments with FL-TPP. […] Not only did FL-TPP fail to accumulate in mitochondria, it was cell-impermeable under our imaging conditions. In contrast, the cationic C343-TPP strongly colocalized with MitoTracker Red in live HeLa cells (Pearson's r=0.72±0.02). To quantify the effect of hydrophobicity in mitochondrial-targeting, we measured the octanol/aqueous buffer partition coefficient (log P) for our TPP constructs and two MitoTracker dyes. We then tabulated the log P, charge of the predominate species in solution at physiological pH, and cellular localization for each dye (Table 1). […] Along with cationic charge, a minimum level of lipophilicity must be reached in order to evade endo/lysosomal sequestration and enable effective mitochondrial targeting.

The subject of another data set is PC-3 cells. Nature of the data set: Mitochondrial zinc uptake imaging in prostate cells. It counts as cell-based, human. As to the method: FIG. 25 depicts decreased mitochondrial zinc uptake in cancerous cell lines. RWPE-1, RWPE-2, and PC-3 prostate cell lines were incubated for 24 h in medium supplemented with (+) and without (−) 50 μM ZnCl2. RWPE-1 is the only cell line that has a statistically significant (p<0.001) increase in mitochondrial zinc uptake when incubated in zinc-enriched media.
With a new mitochondrial-targeting sensor in hand, we used DA-ZP1-TPP to investigate the ability of prostate cell lines to accumulate zinc within their mitochondria. RWPE-1 and RWPE-2 are a pair of genetically similar cell lines that retain normal epithelial cell morphology, express cytokeratin markers for prostate epithelial cells, and are hormone sensitive. […] To explore the ability of RWPE-1 and -2 cells to sequester zinc in mitochondria, we measured the fluorescence intensity of DA-ZP1-TPP in both lines after the cells were bathed in normal or zinc-enriched (50 μM ZnCl2) keratinocyte serum-free medium (KSFM) for 24 h prior to imaging. RWPE-1 cells bathed in zinc-enriched medium have a fluorescence signal intensity that is ˜2.3-fold higher than cells bathed in normal medium (FIG. 25). […] Importantly, in both cell lines the observed fluorescence signals from DA-ZP1-TPP are sensitive to ZnPT and TPEN and have good correlation with MitoTracker Red, the Pearson's r values being 0.68±0.09 and 0.59±0.1 for RWPE-1 and -2, respectively. […]

Structures are written as SMILES.

The log P is a log measure of how a compound divides between an organic and an aqueous phase. Low values mean a more hydrophilic compound, high ones a more lipophilic compound. As to `CC(=O)Oc1c(Cl)cc2c(c1CN(Cc1ccccn1)Cc1ccccn1)Oc1c(cc(Cl)c(OC(C)=O)c1CN(Cc1ccccn1)Cc1ccccn1)C21OC(=O)c2ccc(C(=O)NCC[P+](c3ccccc3)(c3ccccc3)c3ccccc3)cc21` [DA-ZP1-TPP], the “attenuation of fluorescence signal by EDTA” value in data set [1] (chelator (EDTA) added after zinc) is recorded as around 5 fold. In addition, the “zinc-induced fluorescence response (turn-on)” value in data set [1] was above 140 fold. In data set [2], the “log P” value is 0.74±0.18. For the same compound, the “increase in sensor fluorescence intensity, zinc-enriched medium” value with PC-3 cells (PC-3, 50 μM ZnCl2, RMPI 1640 with 10% FBS, 24 h) is on record as “no statistically significant increase”. In addition, in the data set with PC-3 cells (PC-3, serum-free RMPI 1640, 15 μM ZnCl2, 3 h), the “increase in fluorescence intensity, zinc-supplemented serum-free medium” value is reported as “no statistically significant increase”.
`O=C(NCC[P+](c1ccccc1)(c1ccccc1)c1ccccc1)c1ccc2c(c1)C1(OC2=O)c2cc(Cl)c(O)c(CN(Cc3ccccn3)Cc3ccccn3)c2Oc2c1cc(Cl)c(O)c2CN(Cc1ccccn1)Cc1ccccn1` [ZP1-TPP]: the “zinc-induced fluorescence response (turn-on)” value in data set [1] is given as around 7 fold. In addition, the lipophilicity (log P) in data set [2] is reported as −0.11 ± 0.01.

The values above are taken from patent publication US9700637B2, “Reaction-based fluorescent probes for detecting zinc” (Massachusetts Institute of Technology, priority 2013, dated 2017).
